Reference: ChEMBL document CHEMBL1255421, “In vitro fungicidal activities of echinocandins against Candida metapsilosis, C. orthopsilosis, and C. parapsilosis evaluated by time-kill studies” (2010)
The source made the active and inactive calls. The rule behind the calls is not given here. Numbered stars: 1 amine (or outer) side, 2 acyl side, 3 side chain; on linkers, the order of the positions; unused ones are H or OH. Bridge positions count the residues as written; N and C are the ends. Square brackets hold non-standard residues; d marks the D form. Peptide text beside a SMILES is read from it. * marks the point of attachment. hTyr(3S-OH,4S-OH,3'-OSO3H) = N[C@H](C(=O)O)[C@H](O)[C@@H](O)c1ccc(O)c(OS(=O)(=O)O)c1; pTerphenylCO(4''-OnC5H11) = CCCCCOc1ccc(-c2ccc(-c3ccc(C(=O)*)cc3)cc2)cc1; Orn(4R-OH,5R-OH) = O=C([C@H](C[C@@H](O)[C@@H](O)N[*:3])N[*:1])[*:2]; hTyr(3S-OH,4S-OH) = N[C@H](C(=O)O)[C@H](O)[C@@H](O)c1ccc(O)cc1; Pro(3S-OH,4S-Me) = C[C@H]1CN[C@H](C(=O)O)[C@H]1O; X1 = CCCCCOc1ccc(-c2cc(-c3ccc(C(=O)*)cc3)no2)cc1; Gln(3R-OH) = NC(=O)C[C@@H](O)[C@H](N)C(=O)O; Hyp = O=C(O)[C@@H]1C[C@@H](O)CN1

Assays:
Candida orthopsilosis [1] = assay: Antifungal activity against Candida orthopsilosis clinical isolate bloodstream form assessed as induction of miniparadoxical effect at 32 mg/L after 48 hrs by time-kill assay; assay type: functional, organism-based
Candida parapsilosis [2] = assay: Antifungal activity against Candida parapsilosis clinical isolate bloodstream form assessed as induction of miniparadoxical effect at 32 mg/L after 48 hrs by time-kill assay; assay type: functional, organism-based
Candida metapsilosis [3] = assay: Antifungal activity against Candida metapsilosis clinical isolate bloodstream form assessed as induction of miniparadoxical effect at 16 mg/L after 48 hrs by time-kill assay; assay type: functional, organism-based
Candida metapsilosis [4] = assay: Antifungal activity against Candida metapsilosis clinical isolate bloodstream form assessed as induction of maximal fungal death at 16 mg/L after 48 hrs by time-kill assay; assay type: functional, organism-based
Candida metapsilosis [5] = assay: Antifungal activity against Candida metapsilosis clinical isolate bloodstream form assessed as minimum concentration required for => 3-log decrease in fungal growth after 12 to 48 hrs by time-kill assay; assay type: functional
Candida orthopsilosis [6] = assay: Antifungal activity against Candida orthopsilosis clinical isolate bloodstream form assessed as minimum concentration required for => 3-log decrease in fungal growth after 12 to 48 hrs by time-kill assay; assay type: functional
Candida parapsilosis [7] = assay: Antifungal activity against Candida parapsilosis clinical isolate bloodstream form assessed as fungal count at 1 mg/L measured at 6 hrs by time-kill assay; assay type: functional

CCCCCOc1ccc(-c2ccc(-c3ccc(C(=O)N[C@H]4C[C@@H](O)[C@@H](O)NC(=O)[C@@H]5[C@@H](O)[C@@H](C)CN5C(=O)[C@H]([C@@H](C)O)NC(=O)[C@H]([C@H](O)[C@@H](O)c5ccc(O)cc5)NC(=O)[C@@H]5C[C@@H](O)CN5C(=O)[C@H]([C@@H](C)O)NC4=O)cc3)cc2)cc1 [ANIDULAFUNGIN] ({pTerphenylCO(4''-OnC5H11)}-[Orn(4R-OH,5R-OH)]T[Hyp][hTyr(3S-OH,4S-OH)]T[Pro(3S-OH,4S-Me)]; lactam 1-C)
Activity (Candida orthopsilosis [1]): Active | Activity (Candida parapsilosis [2]): Active

CC[C@H](C)C[C@H](C)CCCCCCCCC(=O)N[C@H]1C[C@@H](O)[C@@H](NCCN)NC(=O)[C@@H]2[C@@H](O)CCN2C(=O)[C@H]([C@H](O)CCN)NC(=O)[C@H]([C@H](O)[C@@H](O)c2ccc(O)cc2)NC(=O)[C@@H]2C[C@@H](O)CN2C(=O)[C@H]([C@@H](C)O)NC1=O [CASPOFUNGIN]
Activity (Candida metapsilosis [3]): Active | Activity (Candida metapsilosis [4]): Active | MED (Candida metapsilosis [5]): 14 mg/L | MED (Candida orthopsilosis [6]): 14 mg/L

CCCCCOc1ccc(-c2cc(-c3ccc(C(=O)N[C@H]4C[C@@H](O)[C@@H](O)NC(=O)[C@@H]5[C@@H](O)[C@@H](C)CN5C(=O)[C@H]([C@H](O)CC(N)=O)NC(=O)[C@H]([C@H](O)[C@@H](O)c5ccc(O)c(OS(=O)(=O)O)c5)NC(=O)[C@@H]5C[C@@H](O)CN5C(=O)[C@H]([C@@H](C)O)NC4=O)cc3)no2)cc1 [MICAFUNGIN] (X1-[Orn(4R-OH,5R-OH)]T[Hyp][hTyr(3S-OH,4S-OH,3'-OSO3H)][Gln(3R-OH)][Pro(3S-OH,4S-Me)]; lactam 1-C)
log10cfu (Candida parapsilosis [7]): 1.22 /ml
